Source: patent US20100143960A1, “CYANINE DERIVATIVES, FLUORESCENT CONJUGATES CONTAINING SAME AND USE THEREOF” (CIS BIO INTERNATIONAL, priority 2007, published 2010)

Legend:
[1] = Comparison of quantum yields / fluorescence spectrum of cyanine derivatives carrying phosphonate groups; assay type: physicochemical
Experimental: Fluorescence spectrum: Measurement on a Perkin-Elmer LS50 device, the samples were diluted in phosphate buffer 0.1M pH 7 containing 0.1% BSA (maximum absorbance=0.04 at the excitation wavelength). Excitation: 600 nm (10 nm). Emission (max)=670.5 nm (quantum yield=13%).
The phosphate/phosphonate ester functional groups of the cyanine derivatives according to the invention are hydrolyzed in the cell by cell enzymes to give phosphate/phosphonate functional groups. The quantum yields of the cyanine derivatives carrying phosphonate groups, thus corresponding to the compounds according to the invention as present in the cell after hydrolysis of the ester functional groups, were measured in order to determine if the position of the phosphate/phosphonate ester groups influences the photophysical properties of the compounds.

[2] = test system: stable CHO line expressing SnapTag in the nucleus; assay: Test of cell permeability of benzylguanine conjugates (fluorescence microscopy); assay type: cell-based; settings: 5 μM in culture medium, one hour contact, washing, additional hour, microscopic analysis, FIG. 1
Experimental: The cells used result from a stable CHO line expressing SnapTag in the nucleus by virtue of the NLS sequence. The compounds are added to the culture medium (DMEM medium supplemented with 10% of inactivated SVF, 30 min at 60° C.) at a concentration of 5 μM and left in contact with the cells for one hour. After the incubation, three washing operations are carried out with culture medium. An additional hour of incubation solely in the medium is carried out in order to make possible the labeling of the SnapTag by the substrate. Staining of the […] is subsequently carried out with DAPI before the microscopic analysis.
The above images are represented in FIG. 1.

[3] = test system: fusion protein GST-ST26-Flag in CHO-K1 cells; assay: Labeling of an intracellular protein in intact living cells, detected by HTRF measurement; assay type: cell-based; settings: 5 μM substrate, 3 h at 20° C.
Text: This example is targeted at showing that the compounds according to the invention comprising a phosphonate ester and conjugated to a substrate (benzylguanine, BG) for a “snaptag” suicide enzyme (ST26) are capable of passing through the cell membrane and of labeling a fusion protein expressed by the cell and comprising the snaptag enzyme ([…]), in contrast to the use of a cyanine not comprising phosphonate esters (DY-647).
The HTRF technique is used to test the intracellular labeling of a protein by the cyanine derivatives according to the invention, on living cells, using the recombinant protein GST-ST26-Flag produced by the cells and labeled indirectly via an anti-GST antibody conjugated with a europium trisbipyridine cryptate (anti-GST-EuTBP).
After culturing, CHO-K1 cells are transfected in the presence of lipofectamine 2000 (0.8 μl per 50 μl of transfection solution, Lipofectamine™ Transfection Reagent, Invitrogen Inc., Carlsbad, Calif.) at the rate of 50 000 cells per well in a black 96-well microplate. The transfected cells are subsequently incubated for 24 h at 37° C., 5% CO2. […]
The fluorescence at 665 nm is measured on an HTRF reader (RUBYstar, BMG Labtechnologies). […]

[4] = aqueous medium, nonsulfonated; cited from earlier work
[5] = in solution; cited from earlier work
[6] = phosphate buffer 0.1M pH 7 containing 0.1% BSA, excitation 600 nm

For “2-{(1E,3E,5E)-5-[3-(5-Carboxypentyl)-3-methyl-4-ethyl-5-phosphono-1,3-dihydro-2H-indol-2-ylidene]penta-1,3-dienyl}-5-phosphono-3,3-dimethyl-1-(4-ethyl)-3H-indolium [compound 19]”, the “Emission (max)” value [1, 6] was 670.5 nm, the quantum yield [1, 6] was 13% and the “Wavelength of max. absorption” value ([1]; phosphonate (hydrolyzed) form) was 649 nm. For the same compound, the “Wavelength of max. emission” value ([1]; phosphonate (hydrolyzed) form) was 670 nm and the quantum yield ([1]; phosphonate (hydrolyzed) form) was 13%.

With `CCN1/C(=C/C=C/C=C/C2=[N+](CC)c3ccc(S(=O)(=O)[O-])cc3C2(C)C)C(C)(CCCC(=O)NCc2ccc(COc3nc(N)nc4[nH]cnc34)cc2)c2cc(S(=O)(=O)O)ccc21` (stereo not shown) [BG-DY647] the “passage through the plasma membrane of the cells (intracellular fluorescence)” value [2] was “have not passed through the plasma membrane”, the “percentage of intracellular labeling (signal at 665 nm passive labeling / total labeling)” value ([3]; CHO-K1, HTRF with anti-GST-EuTBP, FIG. 2) was “penetrates poorly into cells” and the “passes through the cell membrane and labels an intracellular protein” value ([3]; intact CHO-K1 cells) was “not the case”.

For `CN1C(=CC=C2CCCC(C=CC3=[N+](C)c4ccccc4C3(C)C)=C2Cl)C(C)(C)c2ccccc21.[O-][Cl+3]([O-])([O-])[O-]` [IR-786], the solubility [4] is listed as “less than 10 μM”.

In the case of `CC1(C)C(/C=C/C=C/C=C/C=C2\N(CCCCS(=O)(=O)O)c3ccc4ccccc4c3C2(C)C)=[N+](CCCCS(=O)(=O)[O-])c2ccc3ccccc3c21` [indocyanine green], the “concentration above which quantum yield falls due to formation of aggregates” value [5] is given as “greater than 125 μM”.
